Marks after values point to notes of the source that are not given here.
What was measured:
[1] = tested on: archaea / methanogenic genera of the rumen microbial flora; assay: Metagenome sequencing of in vitro fermentation rumen fluids (archaea); format: cell-based, cows; conditions: melatonin treatment vs control, FIG. 7B
Experimental: Metagenome sequencing was performed in order to further study the changes in the rumen microbial flora. In addition to the analysis of the gene table, the metagenome sequencing can also analyze the microbial compositions of the samples. Thus, it can obtain more information on the species, including phages, viruses, fungi, archaea and the like, other than bacteria. […] Due to the discovery of the methane-reducing effect of melatonin, we focused on the changes of archaea. 72 species archaea species, which had different abundance between the control and melatonin groups, were screened. […] Thus, melatonin can reduce the methane production by reducing the abundance of most methanogenic microbial flora.

[2] = tested on: rumen fluids (in vitro rumen fluid fermentation); assay: Volatile fatty acids (VFAs) from the in vitro rumen fluid fermentation, gas chromatography; format: cell-based, cows; conditions: 10^−3 mol/L melatonin, 48 h
Experimental: Rumen microorganisms can degrade plant fibers and produce VFAs, which in turn provide energy substances to the hosts. Thus, we analyzed the production of VFAs from the in vitro fermentation system. Based on the above experiments, we determined to in vitro treat the rumen fluids with 10^−3 mol/L of melatonin solution for 48 h. The levels of six VFAs (i.e., acetate (A), propionate (P), butyrate (B), isobutyrate, valerate and isovalerate), were detected in the in vitro rumen fluid fermentation solution by gas chromatography. […] In the rumens of ruminant animals, CO2 and H2 are mainly produced during the conversion of pyruvate into acetate and butyrate in glycolysis, and glucose can be generated from propionate. The A/P ratios of the two groups were compared, 3.00 for the control group and 3.372 for the melatonin group.

[3] = tested on: rumen fluids of cows (in vitro rumen fermentation system); assay: In vitro fermentation of rumen fluids of cows, methane content by gas chromatography; format: cell-based; conditions: for methane production of the in vitro rumen fermentation system: FIG. 1
Text: Rumen fluids were collected from fistulated cows before morning feeding, filtered through 4 layers of gauze, and then brought back to the laboratory by placing in a thermos flask. The experiment comprised a control group (CON) and melatonin groups (MT: 10^−3 mol/L, 10^−5 mol/L, 10^−7 mol/L). The cattle farm Total Mixed Rations (TMR) was used as the fermentation substrate, and artificial saliva was used as the matrix. Oxygen in the fermentation flasks was replaced with nitrogen. Then, the rumen fluids were incubated anaerobically at 39° C. in an incubator, which was connected to a gas bag to collect the fermentation gas. The methane content in the gas bag was detected by gas chromatography. In vitro experiment: melatonin was added during the in vitro simulation of rumen fermentation. The in vitro rumen fermentation system of 75 mL in each bottle comprises 0.5 g TMR powder, 50 mL of artificial saliva and 25 mL of filtered rumen fluid. The 10^−3 mol/L, 10^−5 mol/L and 10^−7 mol/L melatonin groups (melatonin dissolved in a small amount of DMSO and diluted to these concentrations with saline) and a control group (only solvent, i.e., a small amount of DMSO+saline) were set up separately. For each group, the samples were collected at the fermentation times 2 h, 4 h, 8 h, 24 h and 48 h. Three replicates were set for each sample. After fermenting anaerobically at 39° C., the gas bags and fermentation liquid were collected. Gas chromatography was used to detect the methane content in the gas of the gas bags. The obtained data were analyzed by one-way analysis of variance (One Way ANOVA) by means of SPSS® (Statistical Product and Service Solutions) statistical software. p<0.05 indicated significant difference and p<0.01 indicated extremely significant difference. The DunCan test was used for multiple comparisons. The results were expressed as means±SEM. Addition form I: adding melatonin powder (MT p) directly to the fermentation system to a final concentration of 2×10−3 mol/L. Addition form II: adding concentrated melatonin solution (MT s) of 10^−3 mol/L at 0 h and 24 h respectively.

[4] = tested on: lactating cows; assay: Methane content in respiratory gases of cows fed with melatonin; format: in vivo; conditions: fed 15 mg/kg/day
Experimental: In vivo experiment: twenty lactating cows with similar ages and body conditions were selected and randomly divided into two groups, a control group (fed with digestible paper only) and a melatonin-fed group (fed with melatonin wrapped in digestible paper, 15 mg/kg/day). Each group had 10 cows. The cows were fed every morning after milking. The treatment lasted for 21 days. The rumen fluids were collected with rumen collection tubes before the morning feeding on days 0, 7, 14 and 21, respectively. The concentrations of melatonin in the rumen fluids were measured by liquid chromatography tandem mass spectrometry (LC-MS/MS). The breathing gas of the cows was collected by a breathing gas collection system to detect the methane content therein. Meanwhile, the information (e.g., the health condition and milk quality) of the cows was also recorded to monitor the influence of the feeding experiment on the dairy production. Lactating cows were fed with melatonin powder of 15 mg/kg/day for 21 days. The respiratory gases were collected from each group at days 0, 7, 14 and 21 by using a respiratory gas collection system. The methane contents in the gases were detected by gas chromatography. […] In addition, this effect can be maintained for a longer period of time.

[5] = tested on: rumen microbial flora; assay: Microorganism compositions of the in vitro rumen fermentation system (Alpha diversity, differential species analysis); format: cell-based, cows
Experimental: Alpha diversity can reflect the abundance and diversity of microbial flora. […] In order to clarify the species classification information of the microbial flora, the cluster analysis was performed to generate OTUs. FIGS. 5E-5F show the cluster diagram of the annotations at order level. […] There were significant differences in the relative abundance of Clostridiales, Bacteroides, Monadales, Desulfovibrionales and the like. The abundance of the microbial flora (e.g. Prevotella spp. and Succiniclasticum spp.) producing propionate and butyrate decreased, while the abundance of the microbial flora (e.g., Bifidobacterium) producing acetate increased. […] Each circle represents a species at the specific taxonomic level, and the size of the circle is positively correlated with the relative abundance of the species. The species with no significant differences are uniformly colored yellow, and the biomarkers for the species with differences are indicated with the color of the corresponding group.

[6] = Melatonin concentration in rumen fluids of cows fed with melatonin; format: in vivo; conditions: cows fed 15 mg/kg/day, days 7 to 21, FIG. 2
Experimental: In vivo experiment: twenty lactating cows with similar ages and body conditions were selected and randomly divided into two groups, a control group (fed with digestible paper only) and a melatonin-fed group (fed with melatonin wrapped in digestible paper, 15 mg/kg/day). Each group had 10 cows. The cows were fed every morning after milking. The treatment lasted for 21 days. The rumen fluids were collected with rumen collection tubes before the morning feeding on days 0, 7, 14 and 21, respectively. The concentrations of melatonin in the rumen fluids were measured by liquid chromatography tandem mass spectrometry (LC-MS/MS). The breathing gas of the cows was collected by a breathing gas collection system to detect the methane content therein. Meanwhile, the information (e.g., the health condition and milk quality) of the cows was also recorded to monitor the influence of the feeding experiment on the dairy production.
Twenty lactating cows with similar ages and body conditions were selected and randomly divided into two groups, a control group (CON, fed with digestible paper only) and a melatonin-fed group (MT, fed with melatonin wrapped in digestible paper). Each group had 10 cows. […] And the melatonin contents in the rumen fluids were determined by […]. […]

COc1ccc2[nH]cc(CCNC(C)=O)c2c1 [melatonin]
abundance of most methanogenic genera (Halobacterium, Methanoplanus, Methanococcoides, Methanoculleus, Methanothrix spp.) [1]: reduced
level of acetic acid in rumen fluids ([2]; FIG. 4): significantly reduced
level of propionic acid in rumen fluids ([2]; FIG. 4): significantly reduced
A/P ratio (acetate/propionate) ([2]; control group 3.00): 3.372
methane production of the in vitro fermentation ([3]; 10^−3 mol/L, 48 h, vs control): significantly reduced
methane production of the rumen fermentation liquid ([3]; 10^−3 to 10^−7 mol/L, 4 h to 8 h): reduced
reduction of methane production as compared with the control group ([3]; 4 h, all concentrations of melatonin groups (10^−3 to 10^−7 mol/L)): about 15%
methane content (%) ([3]; MT 10^−3 mol/L, fermentation time 2 h): 0.99 ± 0.05%
methane content (%) ([3]; MT 10^−3 mol/L, fermentation time 4 h): 3.42 ± 0.13%
methane content (%) ([3]; MT 10^−3 mol/L, fermentation time 8 h): 4.43 ± 0.39%
methane content (%) ([3]; MT 10^−3 mol/L, fermentation time 24 h): 9.68 ± 0.07%
methane content (%) ([3]; MT 10^−3 mol/L, fermentation time 48 h): 10.79 ± 0.53^b %
methane content (%) ([3]; MT 10^−5 mol/L, fermentation time 2 h): 1.09 ± 0.06%
methane content (%) ([3]; MT 10^−5 mol/L, fermentation time 4 h): 3.47 ± 0.07%
methane content (%) ([3]; MT 10^−5 mol/L, fermentation time 8 h): 4.47 ± 0.39%
methane content (%) ([3]; MT 10^−5 mol/L, fermentation time 24 h): 10.4 ± 0.24%
methane content (%) ([3]; MT 10^−5 mol/L, fermentation time 48 h): 12.65 ± 0.45^a %
methane content (%) ([3]; MT 10^−7 mol/L, fermentation time 2 h): 1.03 ± 0.07%
methane content (%) ([3]; MT 10^−7 mol/L, fermentation time 4 h): 3.45 ± 0.05%
methane content (%) ([3]; MT 10^−7 mol/L, fermentation time 8 h): 5.16 ± 0.14%
methane content (%) ([3]; MT 10^−7 mol/L, fermentation time 24 h): 10.6 ± 0.44%
methane content (%) ([3]; MT 10^−7 mol/L, fermentation time 48 h): 11.25 ± 0.67^a %
methane production of the in vitro rumen fermentation system ([3]; addition form I: melatonin powder (MT p), final concentration 2×10−3 mol/L, 48 h): significantly reduced
methane production of the in vitro rumen fermentation system ([3]; addition form II: concentrated melatonin solution (MT s) of 10^−3 mol/L at 0 h and 24 h, 48 h): significantly reduced
methane production from the respiration of the cows ([4]; day 14, FIG. 3): decreased significantly
methane production from the respiration of the cows ([4]; day 21, FIG. 3): decreased to a similar extent as at day 14
methane production from the respiration of the cows ([4]; from day 7, FIG. 3): decreased
abundance of the microbial flora producing acetate (e.g., Bifidobacterium) ([5]; FIGS. 6A-6B): increased
abundance of the microbial flora producing propionate and butyrate (e.g. Prevotella spp. and Succiniclasticum spp.) ([5]; FIGS. 6A-6B): decreased
diversity of rumen microbial flora (Alpha diversity) ([5]; melatonin added to the fermentation system, FIGS. 5A-5D): increased
compositions of the microbial flora (relative abundance of orders Clostridiales, Bacteroides, Monadales, Desulfovibrionales) ([5]; melatonin treatment, FIGS. 5E-5F): significant changes
melatonin concentrations in the rumen fluids [6]: significantly increased

Source: patent US12427137B2, “Method for reducing methane production in animal stomach” (CHINA AGRICULTURAL UNIVERSITY, priority 2022, dated 2025)
